Source: PubChem BioAssay (NCI)
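Exposure lasted 48 hours, with cells grown in 96-well plates and compounds tested at five concentrations. TGI marks complete inhibition of growth.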

How the values were obtained:
Assay in all cases: NCI tumour cell line growth inhibition, 48 h
XF 498 CNS = system: XF 498 CNS
SK-MEL-28 melanoma = system: SK-MEL-28 melanoma
COLO 205 colon = system: COLO 205 colon
SNB-78 CNS = system: SNB-78 CNS
CCRF-CEM leukemia = system: CCRF-CEM leukemia
HL-60(TB) leukemia = system: HL-60(TB) leukemia
NCI-H23 lung = system: NCI-H23 lung
RPMI-8226 leukemia = system: RPMI-8226 leukemia
SNB-19 CNS = system: SNB-19 CNS
DMS 273 small cell lung = system: DMS 273 small cell lung
HCT-116 colon = system: HCT-116 colon
OVCAR-4 ovarian = system: OVCAR-4 ovarian
SNB-75 CNS = system: SNB-75 CNS
A549 NSCLC = system: A549 NSCLC
SW-620 colon = system: SW-620 colon
NCI-H460 lung = system: NCI-H460 lung
HCT-15 colon = system: HCT-15 colon
HOP-92 NSCLC = system: HOP-92 NSCLC
M14 melanoma = system: M14 melanoma
UACC-257 melanoma = system: UACC-257 melanoma
SK-MEL-5 melanoma = system: SK-MEL-5 melanoma
U251 CNS = system: U251 CNS
MOLT-4 leukemia = system: MOLT-4 leukemia
IGROV1 ovarian = system: IGROV1 ovarian
CAKI-1 renal = system: CAKI-1 renal
SF-295 CNS = system: SF-295 CNS
HCC-2998 colon = system: HCC-2998 colon
SN12C renal = system: SN12C renal
UO-31 renal = system: UO-31 renal
LOX IMVI melanoma = system: LOX IMVI melanoma
M19-MEL melanoma = system: M19-MEL melanoma
A498 renal = system: A498 renal
NCI-H522 lung = system: NCI-H522 lung
SF-268 CNS = system: SF-268 CNS
OVCAR-3 ovarian = system: OVCAR-3 ovarian
RXF-631 renal = system: RXF-631 renal
SK-MEL-2 melanoma = system: SK-MEL-2 melanoma
KM12 colon = system: KM12 colon
SK-OV-3 ovarian = system: SK-OV-3 ovarian
UACC-62 melanoma = system: UACC-62 melanoma
K-562 leukemia = system: K-562 leukemia
SF-539 CNS = system: SF-539 CNS
LXFL 529 NSCLC = system: LXFL 529 NSCLC
RXF 393 renal = system: RXF 393 renal
MALME-3M melanoma = system: MALME-3M melanoma
HOP-62 NSCLC = system: HOP-62 NSCLC
HT29 colon = system: HT29 colon
DLD-1 colon = system: DLD-1 colon
786-0 renal = system: 786-0 renal
SR leukemia = system: SR leukemia
KM20L2 colon = system: KM20L2 colon
ACHN renal = system: ACHN renal
EKVX NSCLC = system: EKVX NSCLC
NCI-H226 lung = system: NCI-H226 lung
OVCAR-8 ovarian = system: OVCAR-8 ovarian
DMS 114 small cell lung = system: DMS 114 small cell lung
TK-10 renal = system: TK-10 renal

SMILES: COC1=C2C[C@H](O)C(C)C[C@@]2(OC)OC1=O (stereo partly specified)
- TGI (XF 498 CNS): > 100 µM
- TGI (SK-MEL-28 melanoma): > 100 µM
- TGI (COLO 205 colon): > 100 µM
- TGI (SNB-78 CNS): > 100 µM
- TGI (CCRF-CEM leukemia): > 100 µM
- TGI (HL-60(TB) leukemia): > 100 µM
- TGI (NCI-H23 lung): > 100 µM
- TGI (RPMI-8226 leukemia): > 100 µM
- TGI (SNB-19 CNS): > 100 µM
- TGI (DMS 273 small cell lung): > 100 µM
- TGI (HCT-116 colon): > 100 µM
- TGI (OVCAR-4 ovarian): > 100 µM
- TGI (SNB-75 CNS): > 100 µM
- TGI (A549 NSCLC): > 100 µM
- TGI (SW-620 colon): > 100 µM
- TGI (NCI-H460 lung): > 100 µM
- TGI (HCT-15 colon): > 100 µM
- TGI (HOP-92 NSCLC): > 100 µM
- TGI (M14 melanoma): > 100 µM
- TGI (UACC-257 melanoma): > 100 µM
- TGI (SK-MEL-5 melanoma): > 100 µM
- TGI (U251 CNS): > 100 µM
- TGI (MOLT-4 leukemia): > 100 µM
- TGI (IGROV1 ovarian): > 100 µM
- TGI (CAKI-1 renal): > 100 µM
- TGI (SF-295 CNS): > 100 µM
- TGI (HCC-2998 colon): > 100 µM
- TGI (SN12C renal): > 100 µM
- TGI (UO-31 renal): > 100 µM
- TGI (LOX IMVI melanoma): > 100 µM
- TGI (M19-MEL melanoma): > 100 µM
- TGI (A498 renal): > 100 µM
- TGI (NCI-H522 lung): > 100 µM
- TGI (SF-268 CNS): > 100 µM
- TGI (OVCAR-3 ovarian): > 100 µM
- TGI (RXF-631 renal): > 100 µM
- TGI (SK-MEL-2 melanoma): > 100 µM
- TGI (KM12 colon): > 100 µM
- TGI (SK-OV-3 ovarian): > 100 µM
- TGI (UACC-62 melanoma): > 100 µM
- TGI (K-562 leukemia): > 100 µM
- TGI (SF-539 CNS): > 100 µM
- TGI (LXFL 529 NSCLC): > 100 µM
- TGI (RXF 393 renal): > 100 µM
- TGI (MALME-3M melanoma): > 100 µM
- TGI (HOP-62 NSCLC): > 100 µM
- TGI (HT29 colon): > 100 µM
- TGI (DLD-1 colon): > 100 µM
- TGI (786-0 renal): > 100 µM

SMILES: CSc1nc(SC)c2c(C(N)=S)[nH]nc2n1
- TGI (SK-MEL-28 melanoma): 99.5 µM
- TGI (COLO 205 colon): 35.7 µM
- TGI (SNB-78 CNS): 85.8 µM
- TGI (CCRF-CEM leukemia): 69.5 µM
- TGI (NCI-H23 lung): 66.3 µM
- TGI (RPMI-8226 leukemia): 67.8 µM
- TGI (SNB-19 CNS): 90 µM
- TGI (SR leukemia): 87.1 µM
- TGI (DMS 273 small cell lung): 98.3 µM
- TGI (OVCAR-4 ovarian): 55.8 µM
- TGI (SNB-75 CNS): 76.5 µM
- TGI (KM20L2 colon): 85 µM
- TGI (A549 NSCLC): 65.6 µM
- TGI (SW-620 colon): > 100 µM
- TGI (NCI-H460 lung): 64.8 µM
- TGI (HCT-15 colon): > 100 µM
- TGI (HOP-92 NSCLC): 50.4 µM
- TGI (M14 melanoma): > 100 µM
- TGI (UACC-257 melanoma): 52.5 µM
- TGI (SK-MEL-5 melanoma): 34.1 µM
- TGI (U251 CNS): 46.1 µM
- TGI (ACHN renal): 74.7 µM
- TGI (EKVX NSCLC): 56 µM
- TGI (MOLT-4 leukemia): 99.3 µM
- TGI (IGROV1 ovarian): 94.4 µM
- TGI (CAKI-1 renal): 56.5 µM
- TGI (SF-295 CNS): 48.1 µM
- TGI (NCI-H226 lung): 62.6 µM
- TGI (SN12C renal): > 100 µM
- TGI (UO-31 renal): 49.6 µM
- TGI (LOX IMVI melanoma): 62.7 µM
- TGI (M19-MEL melanoma): 91.7 µM
- TGI (A498 renal): 71.7 µM
- TGI (OVCAR-8 ovarian): > 100 µM
- TGI (SF-268 CNS): > 100 µM
- TGI (OVCAR-3 ovarian): 57.8 µM
- TGI (RXF-631 renal): 93.7 µM
- TGI (SK-MEL-2 melanoma): 50.5 µM
- TGI (KM12 colon): > 100 µM
- TGI (DMS 114 small cell lung): 83 µM
- TGI (SK-OV-3 ovarian): 70.5 µM
- TGI (UACC-62 melanoma): 55.6 µM
- TGI (K-562 leukemia): 78.9 µM
- TGI (SF-539 CNS): 60 µM
- TGI (LXFL 529 NSCLC): > 100 µM
- TGI (RXF 393 renal): 61 µM
- TGI (MALME-3M melanoma): 88 µM
- TGI (HOP-62 NSCLC): 58.5 µM
- TGI (HT29 colon): > 100 µM
- TGI (DLD-1 colon): > 100 µM
- TGI (TK-10 renal): 63.5 µM
- TGI (786-0 renal): > 100 µM
